Experimental data from patent US20240302280A1, “PREPARATION METHOD AND APPLICATION OF VISCOSITY FLUORESCENT PROBE” (Zhengzhou University of Light Industry, priority 2023, published 2024).

Key:
[1] = Spectral response of the probe to solution viscosity (glycerol/MeOH); type: physicochemical; conditions: viscosity increased from 1.4 cp to 955 cp by glycerol/MeOH volume ratio
Source text: Therefore, it may be concluded that the fluorescence intensity of TzAr-Nap-OH may be used as a reliable indicator for a quantitative viscosity sensor.

[2] = Effect of solution pH on probe fluorescence in PBS/THF (4/1); type: physicochemical; conditions: pH range 1.64 to 11.45
Protocol: 20 μL of the fluorescent probe stock solution were taken and added dropwise into a PBS/THF (4/1) system, resulting in a final volume of 2 mL.

[3] = Effect of interfering substances on probe fluorescence in PBS/THF (4/1); type: physicochemical; conditions: 10 μM interfering substances
Protocol: 20 μL of the fluorescent probe stock solution were taken and added dropwise into the PBS/THF (4/1) system, into which 10 μM of other interfering substance solutions were added dropwise, resulint in a final volume is 2 mL. Other interfering substances had little effect on the fluorescence intensity of TzAr-Nap-OH.

HeLa cells [4] = test: MTT cytotoxicity experiment; type: cell-based; conditions: 0-20 μM probe, 24 hours
HeLa cells [5] = test: Cell imaging of response to viscosity (monensin-treated cells); type: cell-based; conditions: probe 10 μM, 30 min, λex=360 nm
Protocol: FIG. 9 is a fluorescence image of Hela cells; (a-c) HeLa cells were cultured with TzAr-Nap-OH (10 μM) for 30 minutes; (d-f) HeLa cells were treated with monensin (Mo) and incubated with the TzAr-Nap-OH probe for 30 minutes; λex=360 nm, slit=5 nm, scale bar=20 μm.
Images a-c were obtained by treating HeLa cells with TzAr-Nap-OH (10 μM) for 30 mins. HeLa cells were first treated with monensin to increase cell viscosity, and then treated with TzAr-Nap-OH (10 μM) to obtain images d-f.

change of fluorescence intensity with pH [2]: did not change significantly
Structure (SMILES): Oc1ccc2cc(/C=C/c3nc(-c4ccccc4)nc(-c4ccccc4)n3)ccc2c1 [TzAr-Nap-OH]
increase of fluorescence intensity at 520 nm [1]: ~15 times
effect of other interfering substances on fluorescence intensity [3]: little effect
survival rate (cell viability) (HeLa cells [4]): over 81%
fluorescence intensity of monensin-treated cells versus normal cells (HeLa cells [5]): significantly higher
